Target: T1, Cathepsin K (Homo sapiens, UniProt P43235)
T1 sequence (P43235 whole entry): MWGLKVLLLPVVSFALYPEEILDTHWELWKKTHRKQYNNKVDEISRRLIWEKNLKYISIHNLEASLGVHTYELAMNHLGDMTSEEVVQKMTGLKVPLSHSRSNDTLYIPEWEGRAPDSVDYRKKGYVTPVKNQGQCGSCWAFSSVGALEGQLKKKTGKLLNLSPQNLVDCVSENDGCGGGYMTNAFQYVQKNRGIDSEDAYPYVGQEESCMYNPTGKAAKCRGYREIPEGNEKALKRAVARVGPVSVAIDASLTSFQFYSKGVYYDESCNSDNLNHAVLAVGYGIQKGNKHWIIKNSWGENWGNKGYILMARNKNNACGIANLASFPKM
Test: In Vitro Inhibition Assay: In vitro cathepsin inhibition assay.

Ki: 1.1 nM
Structure (SMILES): C[C@H]1CN(C(=O)[C@@H](NC(=O)c2ccc(N3CCN(C)CC3)cc2)C(C)(C)C)[C@@H]2C(=O)CO[C@@H]21
